# In patent publication US9309254B2, “Pyrimidinyl-diazospiro compounds” (CONVERGENCE PHARMACEUTICALS LIMITED, priority 2012, dated 2016):
# Where a name gives a salt, the structure may show the parent alone. Read-outs that look alike come from different tables or passages of the source.
# Target: T1, hNaV1.7 (Homo sapiens, UniProt Q15858)
# T1 construct: expressed in transfected cells; host or cells: HEK293
# Assay: QPatch NaV1.7 assay
# Format: cell-based
# Conditions: HEK293-hNaV1.7 cells, QPatch16x
# Method: The compounds of the invention were tested in a QPatch NaV1.7 assay.
# HEK293-hNaV1.7 cells were grown in DMEM-F12+10% FBS culture media at 37° C. At a confluency of 50-70% cells were dissociated from culture flasks & triturated to ensure unicellular cell suspension; cell density was measured & adjusted to 2-3×10^6 cells/ml. Recordings were obtained using QPatch16x. The external solution was (in mM): NaCl, 128; KCl, 5; MgCl2, 2; CaCl2, 2; Glucose, 30; HEPES, 15; pH 7.3, 305-315 mOsm. Following seal formation and whole-cell access using internal solution (containing in mM: CsF, 135; EGTA/CsOH, 1/5; HEPES 10; NaCl, 10; pH 7.3, 310-320mOsM), voltage pulse protocols were applied. Initially a steady state inactivation voltage protocol was used to determine the half-maximal voltage for steady state inactivation (V1/2 SSI). Two holding voltages were used to determine test drug inhibition: −90 mV, where most of the channels are in a closed state; and V1/2 SSI, where half of the channels are inactivated. Currents were elicited every 10 seconds by stepping to a membrane potential of 0 mV for 20 ms. Four-point cumulative concentration responses were derived by determining the peak current amplitude at each concentration of test drug over 120 second application. Curves were fitted with the Hill equation yielding pIC50 values at −90 mV and V1/2 SSI holding potentials.
# [1] = holding voltage V1/2 SSI, where half of the channels are inactivated, read-out: QP Nav1.7 SSI vhalf pIC50 (converted)
# [2] = holding voltage −90 mV, where most of the channels are in a closed state, read-out: QP Nav1.7 - 90 mV pIC50 (converted)
# T1 sequence (Q15858 whole entry): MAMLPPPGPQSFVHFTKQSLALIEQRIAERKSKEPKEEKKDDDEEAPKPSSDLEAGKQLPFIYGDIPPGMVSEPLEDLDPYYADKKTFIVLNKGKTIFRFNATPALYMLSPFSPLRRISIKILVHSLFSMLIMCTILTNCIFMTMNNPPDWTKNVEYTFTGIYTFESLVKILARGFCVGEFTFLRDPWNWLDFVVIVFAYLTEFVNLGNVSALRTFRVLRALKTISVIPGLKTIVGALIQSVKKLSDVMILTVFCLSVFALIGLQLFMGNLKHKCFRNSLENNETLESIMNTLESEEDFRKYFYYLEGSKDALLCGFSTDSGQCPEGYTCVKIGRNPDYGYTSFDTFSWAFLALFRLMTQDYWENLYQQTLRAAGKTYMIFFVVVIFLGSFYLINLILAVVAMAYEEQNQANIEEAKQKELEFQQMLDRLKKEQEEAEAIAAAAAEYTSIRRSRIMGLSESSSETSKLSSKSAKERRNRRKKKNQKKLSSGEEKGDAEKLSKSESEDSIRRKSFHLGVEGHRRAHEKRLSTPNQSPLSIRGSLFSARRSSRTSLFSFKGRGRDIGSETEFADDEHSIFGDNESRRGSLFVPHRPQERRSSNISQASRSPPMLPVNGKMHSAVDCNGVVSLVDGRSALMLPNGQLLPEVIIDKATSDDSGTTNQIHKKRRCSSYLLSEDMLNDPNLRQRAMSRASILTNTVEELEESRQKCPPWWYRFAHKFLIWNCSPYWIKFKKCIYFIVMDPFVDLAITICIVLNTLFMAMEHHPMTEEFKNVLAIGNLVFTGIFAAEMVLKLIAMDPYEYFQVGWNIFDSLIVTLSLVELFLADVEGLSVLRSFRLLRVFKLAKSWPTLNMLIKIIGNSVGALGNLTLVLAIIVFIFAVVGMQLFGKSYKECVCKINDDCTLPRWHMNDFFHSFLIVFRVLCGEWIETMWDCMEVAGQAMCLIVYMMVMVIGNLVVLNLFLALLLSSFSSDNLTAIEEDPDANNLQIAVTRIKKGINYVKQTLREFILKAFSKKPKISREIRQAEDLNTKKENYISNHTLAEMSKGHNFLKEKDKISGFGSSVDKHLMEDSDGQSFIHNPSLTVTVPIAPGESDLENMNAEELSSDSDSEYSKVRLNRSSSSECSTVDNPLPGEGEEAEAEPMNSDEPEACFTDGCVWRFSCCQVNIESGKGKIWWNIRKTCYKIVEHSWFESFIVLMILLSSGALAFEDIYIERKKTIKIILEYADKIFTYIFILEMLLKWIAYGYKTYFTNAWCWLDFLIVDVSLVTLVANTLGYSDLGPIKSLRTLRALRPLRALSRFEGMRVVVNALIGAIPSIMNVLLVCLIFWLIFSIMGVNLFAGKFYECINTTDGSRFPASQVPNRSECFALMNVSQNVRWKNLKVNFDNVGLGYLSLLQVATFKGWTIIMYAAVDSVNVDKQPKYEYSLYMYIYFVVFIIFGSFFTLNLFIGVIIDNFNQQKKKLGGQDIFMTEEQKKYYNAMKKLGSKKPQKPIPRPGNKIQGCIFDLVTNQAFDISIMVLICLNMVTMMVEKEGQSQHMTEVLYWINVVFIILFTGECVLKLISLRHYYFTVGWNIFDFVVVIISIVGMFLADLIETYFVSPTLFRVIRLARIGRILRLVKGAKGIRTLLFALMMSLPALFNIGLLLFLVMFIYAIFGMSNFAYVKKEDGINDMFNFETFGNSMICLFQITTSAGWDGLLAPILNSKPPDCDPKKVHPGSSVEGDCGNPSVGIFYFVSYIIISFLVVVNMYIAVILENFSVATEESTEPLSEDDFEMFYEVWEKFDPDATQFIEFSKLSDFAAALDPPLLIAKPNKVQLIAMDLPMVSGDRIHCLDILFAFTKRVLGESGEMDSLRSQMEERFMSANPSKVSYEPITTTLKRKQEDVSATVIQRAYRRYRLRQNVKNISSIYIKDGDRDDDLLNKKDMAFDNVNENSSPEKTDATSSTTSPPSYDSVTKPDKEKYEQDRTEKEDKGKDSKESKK
SMILES,IC50 [1],IC50 [2]
"Cc1cc(-c2ccc(C(F)(F)F)cc2)nc([C@H]2CC[C@]3(CCN(C)C3=O)N2)n1 [Example 6, (2R,5R)-7-Methyl-2-[4-methyl-6-[4-(trifluoromethyl)phenyl]pyrimidin-2-yl]-1,7-diazaspiro[4.4]nonan-6-one hydrochloride]",79.4 µM,316 µM
"Cc1cc(-c2ccc(OC(F)(F)F)cc2)nc([C@H]2CC[C@]3(CCN(C)C3=O)N2)n1 [Example 30, (2R,5R)-7-Methyl-2-[4-methyl-6-[4-(trifluoromethoxy)phenyl]pyrimidin-2-yl]-1,7-diazaspiro[4.4]nonan-6-one hydrochloride]",20 µM,316 µM
"CCOc1ccc(F)c(-c2ccnc([C@@H]3CC[C@@]4(CCN(C)C4=O)N3)n2)c1 [Example 16, (2S,5S)-2-[4-(5-Ethoxy-2-fluoro-phenyl)pyrimidin-2-yl]-7-methyl-1,7-diazaspiro[4.4]nonan-6-one hydrochloride]",12.6 µM,126 µM
"CC(C)Oc1ccc(-c2ccnc([C@H]3CC[C@@]4(CCN(C)C4=O)N3)n2)cc1 [Example 25, (2R,5S)-2-[4-(4-Isopropoxyphenyl)pyrimidin-2-yl]-7-methyl-1,7-diazaspiro[4.4]nonan-6-one hydrochloride]",7.94 µM,50.1 µM
"Cc1cc(-c2ccc(OC(F)(F)F)cc2)nc([C@@H]2CC[C@@]3(CCN(C)C3=O)N2)n1 [Example 28, (2S,5S)-7-Methyl-2-[4-methyl-6-[4-(trifluoromethoxy)phenyl]pyrimidin-2-yl]-1,7-diazaspiro[4.4]nonan-6-one hydrochloride]",50.1 µM,631 µM
"CC(C)Oc1ccc(-c2ccnc([C@H]3CC[C@]4(CCN(C)C4=O)N3)n2)cc1 [Example 23, (2R,5R)-2-[4-(4-Isopropoxyphenyl)pyrimidin-2-yl]-7-methyl-1,7-diazaspiro[4.4]nonan-6-one hydrochloride]",63.1 µM,1580 µM
"CC(C)Oc1ccc(-c2ccnc([C@@H]3CC[C@@]4(CCN(C)C4=O)N3)n2)cc1 [Example 26, (2S,5S)-2-[4-(4-Isopropoxyphenyl)pyrimidin-2-yl]-7-methyl-1,7-diazaspiro[4.4]nonan-6-one hydrochloride]",50.1 µM,631 µM
"CCOc1ccc(F)c(-c2cc(C)nc([C@@H]3CC[C@@]4(CCCNC4=O)N3)n2)c1 [Example 38, hydrochloride]",3.16 µM,50.1 µM
"CCOc1ccc(F)c(-c2cc(C)nc([C@@H]3CC[C@]4(CCN(C)C4=O)N3)n2)c1 [Example 8, (2S,5R)-2-[4-(5-Ethoxy-2-fluoro-phenyl)-6-methyl-pyrimidin-2-yl]-7-methyl-1,7-diazaspiro[4.4]nonan-6-one hydrochloride]",2.51 µM,39.8 µM
"Cc1cc(-c2cc(OC(F)(F)F)ccc2F)nc([C@@H]2CC[C@]3(CCN(C)C3=O)N2)n1 [Example 34, (2S,5R)-2-[4-[2-Fluoro-5-(trifluoromethoxy)phenyl]-6-methyl-pyrimidin-2-yl]-7-methyl-1,7-diazaspiro[4.4]nonan-6-one hydrochloride]",7.94 µM,79.4 µM
"CN1CC[C@@]2(CC[C@@H](c3nccc(-c4ccc(C(F)(F)F)cc4)n3)N2)C1=O [Example 2, (2S,5S)-7-Methyl-2-[4-[4-(trifluoromethyl)phenyl]pyrimidin-2-yl]-1,7-diazaspiro[4.4]nonan-6-one hydrochloride]",63.1 µM,398 µM
"CCOc1ccc(F)c(-c2cc(C)nc([C@H]3CC[C@@]4(CCN(C)C4=O)N3)n2)c1 [Example 10, (2R,5S)-2-[4-(5-Ethoxy-2-fluoro-phenyl)-6-methyl-pyrimidin-2-yl]-7-methyl-1,7-diazaspiro[4.4]nonan-6-one hydrochloride]",1.58 µM,20 µM
"CCOc1ccc(F)c(-c2cc(C)nc([C@@H]3CC[C@]4(CCCNC4=O)N3)n2)c1 [Example 13, hydrochloride]",1.58 µM,7.94 µM
"Cc1cc(-c2ccc(OC(F)(F)F)cc2)nc([C@H]2CC[C@@]3(CCN(C)C3=O)N2)n1 [Example 27, (2R,5S)-7-Methyl-2-[4-methyl-6-[4-(trifluoromethoxy)phenyl]pyrimidin-2-yl]-1,7-diazaspiro[4.4]nonan-6-one hydrochloride]",10 µM,63.1 µM
"Cc1cc(-c2ccc(C(F)(F)F)cc2)nc([C@H]2CC[C@@]3(CC(C)(C)NC3=O)N2)n1 [Example 43, (2R,5S)-8,8-Dimethyl-2-[4-methyl-6-[4-(trifluoromethyl)phenyl]pyrimidin-2-yl]-1,7-diazaspiro[4.4]nonan-6-one hydrochloride]",5.01 µM,31.6 µM
"Cc1cc(-c2ccc(OC(F)(F)F)cc2)nc([C@@H]2CC[C@]3(CCN(C)C3=O)N2)n1 [Example 29, (2S,5R)-7-Methyl-2-[4-methyl-6-[4-(trifluoromethoxy)phenyl]pyrimidin-2-yl]-1,7-diazaspiro[4.4]nonan-6-one hydrochloride]",12.6 µM,126 µM
"CCOc1ccc(F)c(-c2ccnc([C@H]3CC[C@@]4(CCN(C)C4=O)N3)n2)c1 [Example 17, (2R,5S)-2-[4-(5-Ethoxy-2-fluoro-phenyl)pyrimidin-2-yl]-7-methyl-1,7-diazaspiro[4.4]nonan-6-one hydrochloride]",10 µM,63.1 µM
"Cc1cc(-c2cc(OC(F)(F)F)ccc2F)nc([C@H]2CC[C@]3(CCN(C)C3=O)N2)n1 [Example 33, (2R,5R)-2-[4-[2-Fluoro-5-(trifluoromethoxy)phenyl]-6-methyl-pyrimidin-2-yl]-7-methyl-1,7-diazaspiro[4.4]nonan-6-one hydrochloride]",2 µM,20 µM
"Cc1cc(-c2cc(OC(F)(F)F)ccc2F)nc([C@@H]2CC[C@@]3(CCN(C)C3=O)N2)n1 [Example 31, (2S,5S)-2-[4-[2-Fluoro-5-(trifluoromethoxy)phenyl]-6-methyl-pyrimidin-2-yl]-7-methyl-1,7-diazaspiro[4.4]nonan-6-one hydrochloride]",3.16 µM,100 µM
"CN1CC[C@]2(CC[C@@H](c3nccc(-c4ccc(C(F)(F)F)cc4)n3)N2)C1=O [Example 3, (2S,5R)-7-Methyl-2-[4-[4-(trifluoromethyl)phenyl]pyrimidin-2-yl]-1,7-diazaspiro[4.4]nonan-6-one hydrochloride]",31.6 µM,158 µM
"CCOc1ccc(F)c(-c2cc(C)nc([C@H]3CC[C@]4(CCN(C)C4=O)N3)n2)c1 [Example 9, (2R,5R)-2-[4-(5-Ethoxy-2-fluoro-phenyl)-6-methyl-pyrimidin-2-yl]-7-methyl-1,7-diazaspiro[4.4]nonan-6-one hydrochloride]",1.58 µM,12.6 µM
"CN1CC[C@@]2(CC[C@H](c3nccc(-c4cccc(OC(F)(F)F)c4)n3)N2)C1=O [Example 18, (2R,5S)-7-Methyl-2-[4-[3-(trifluoromethoxy)phenyl]pyrimidin-2-yl]-1,7-diazaspiro[4.4]nonan-6-one hydrochloride]",12.6 µM,126 µM
"CC(C)Oc1ccc(-c2ccnc([C@@H]3CC[C@]4(CCN(C)C4=O)N3)n2)cc1 [Example 24, (2S,5R)-2-[4-(4-Isopropoxyphenyl)pyrimidin-2-yl]-7-methyl-1,7-diazaspiro[4.4]nonan-6-one hydrochloride]",20 µM,158 µM
"CN1CC[C@]2(CC[C@H](c3nccc(-c4ccc(C(F)(F)F)cc4)n3)N2)C1=O [Example 4, (2R,5R)-7-Methyl-2-[4-[4-(trifluoromethyl)-phenyl]-pyrimidin-2-yl]-1,7-diazaspiro[4.4]nonan-6-one hydrochloride]",39.8 µM,251 µM
"CN1CC[C@]2(CC[C@H](c3nccc(-c4cccc(OC(F)(F)F)c4)n3)N2)C1=O [Example 21, (2R,5R)-7-Methyl-2-[4-[3-(trifluoromethoxy)phenyl]pyrimidin-2-yl]-1,7-diazaspiro[4.4]nonan-6-one hydrochloride]",15.8 µM,200 µM
"CCOc1ccc(F)c(-c2ccnc([C@H]3CC[C@]4(CCN(C)C4=O)N3)n2)c1 [Example 14, (2R,5R)-2-[4-(5-Ethoxy-2-fluoro-phenyl)pyrimidin-2-yl]-7-methyl-1,7-diazaspiro[4.4]nonan-6-one hydrochloride]",1.26 µM,20 µM
"CCOc1ccc(F)c(-c2cc(C)nc([C@H]3CC[C@]4(CCCNC4=O)N3)n2)c1 [Example 12, hydrochloride]",2 µM,20 µM
"Cc1cc(-c2ccc(C(F)(F)F)cc2)nc([C@@H]2CC[C@@]3(CC(C)(C)NC3=O)N2)n1 [Example 44, (2S,5S)-8,8-Dimethyl-2-[4-methyl-6-[4-(trifluoromethyl)phenyl]pyrimidin-2-yl]-1,7-diazaspiro[4.4]nonan-6-one hydrochloride]",39.8 µM,158 µM
